Earlier results as cited in patent publication EP1019029B1, “MONOLITHIC SYSTEM CONTAINING ONE OR MORE DRUGS, CONSISTING OF THREE LAYERS WITH DIFFERENT RELEASE MECHANISMS” (CHIESI FARMACEUTICI S.p.A., priority 1997, dated 1999).
Where two headings read alike, the source gives them in different places.

water solubilities (at 37°C) | water solubilities (at 20°C) | Structure (SMILES)
2.5 mg/mL | – | C[C@@](Cc1ccc(O)c(O)c1)(NN)C(=O)O [Carbidopa]
– | 500 mg/mL | COC(=O)[C@@H](N)Cc1ccc(O)c(O)c1 [Levodopa methyl ester]
